According to PubChem BioAssay (NCI):
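96-well plates; 48 h exposure; 5 concentrations. Endpoints by linear interpolation between flanking doses. Not reached: highest tested concentration assigned. Definition used: TGI = concentration required for complete inhibition of growth.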

How the values were obtained:
Experiment in all cases: inhibition of tumour cell growth, NCI panel, 48 h
BT-549 breast = system: BT-549 breast
RXF 393 renal = system: RXF 393 renal
HOP-62 NSCLC = system: HOP-62 NSCLC
TK-10 renal = system: TK-10 renal
PC-3 prostate = system: PC-3 prostate
SF-268 CNS = system: SF-268 CNS
COLO 205 colon = system: COLO 205 colon
UACC-62 melanoma = system: UACC-62 melanoma
SN12C renal = system: SN12C renal
HCC-2998 colon = system: HCC-2998 colon
OVCAR-4 ovarian = system: OVCAR-4 ovarian
HCT-116 colon = system: HCT-116 colon
CAKI-1 renal = system: CAKI-1 renal
K-562 leukemia = system: K-562 leukemia
MCF7 breast = system: MCF7 breast
MDA-MB-435 = system: MDA-MB-435
KM12 colon = system: KM12 colon
SW-620 colon = system: SW-620 colon
U251 CNS = system: U251 CNS
SK-MEL-28 melanoma = system: SK-MEL-28 melanoma
SF-295 CNS = system: SF-295 CNS
SK-MEL-2 melanoma = system: SK-MEL-2 melanoma
SNB-75 CNS = system: SNB-75 CNS
DU-145 prostate = system: DU-145 prostate
SNB-19 CNS = system: SNB-19 CNS
SF-539 CNS = system: SF-539 CNS
HOP-92 NSCLC = system: HOP-92 NSCLC
LOX IMVI melanoma = system: LOX IMVI melanoma
MALME-3M melanoma = system: MALME-3M melanoma
HS 578T breast = system: HS 578T breast
NCI-H23 lung = system: NCI-H23 lung
UACC-257 melanoma = system: UACC-257 melanoma
IGROV1 ovarian = system: IGROV1 ovarian
NCI-H460 lung = system: NCI-H460 lung
A549 NSCLC = system: A549 NSCLC
ACHN renal = system: ACHN renal
HCT-15 colon = system: HCT-15 colon
SK-MEL-5 melanoma = system: SK-MEL-5 melanoma
UO-31 renal = system: UO-31 renal
HT29 colon = system: HT29 colon
SK-OV-3 ovarian = system: SK-OV-3 ovarian
OVCAR-5 ovarian = system: OVCAR-5 ovarian
MDA-N = system: MDA-N
786-0 renal = system: 786-0 renal
A498 renal = system: A498 renal
MDA-MB-231 breast = system: MDA-MB-231 breast
M14 melanoma = system: M14 melanoma
EKVX NSCLC = system: EKVX NSCLC
NCI-H522 lung = system: NCI-H522 lung
RPMI-8226 leukemia = system: RPMI-8226 leukemia
OVCAR-8 ovarian = system: OVCAR-8 ovarian
NCI-H226 lung = system: NCI-H226 lung
HL-60(TB) leukemia = system: HL-60(TB) leukemia
MOLT-4 leukemia = system: MOLT-4 leukemia
CCRF-CEM leukemia = system: CCRF-CEM leukemia
NCI/ADR-RES ovarian = system: NCI/ADR-RES ovarian
SR leukemia = system: SR leukemia
OVCAR-3 ovarian = system: OVCAR-3 ovarian

## CNC(=S)N/N=C(\C(=N/NC(=S)NC)c1ccccn1)c1ccccn1
BT-549 breast
  TGI: > 100 µM
RXF 393 renal
  TGI: 41.1 µM
HOP-62 NSCLC
  TGI: > 53.5 µM
TK-10 renal
  TGI: > 100 µM
PC-3 prostate
  TGI: > 100 µM
SF-268 CNS
  TGI: > 63.6 µM
COLO 205 colon
  TGI: > 100 µM
UACC-62 melanoma
  TGI: > 100 µM
SN12C renal
  TGI: > 100 µM
HCC-2998 colon
  TGI: > 100 µM
OVCAR-4 ovarian
  TGI: > 100 µM
HCT-116 colon
  TGI: > 100 µM
CAKI-1 renal
  TGI: > 100 µM
K-562 leukemia
  TGI: > 100 µM
MCF7 breast
  TGI: > 100 µM
MDA-MB-435
  TGI: > 100 µM
KM12 colon
  TGI: > 100 µM
SW-620 colon
  TGI: > 100 µM
U251 CNS
  TGI: > 100 µM
SK-MEL-28 melanoma
  TGI: > 100 µM
SF-295 CNS
  TGI: > 83.2 µM
SK-MEL-2 melanoma
  TGI: > 100 µM
SNB-75 CNS
  TGI: > 92.6 µM
DU-145 prostate
  TGI: > 100 µM
SNB-19 CNS
  TGI: > 100 µM
SF-539 CNS
  TGI: > 100 µM
HOP-92 NSCLC
  TGI: > 100 µM
LOX IMVI melanoma
  TGI: > 100 µM
MALME-3M melanoma
  TGI: 98 µM
HS 578T breast
  TGI: 99.1 µM
NCI-H23 lung
  TGI: > 68.5 µM
UACC-257 melanoma
  TGI: > 100 µM
IGROV1 ovarian
  TGI: > 100 µM
NCI-H460 lung
  TGI: > 100 µM
A549 NSCLC
  TGI: > 100 µM
ACHN renal
  TGI: > 44.6 µM
HCT-15 colon
  TGI: > 100 µM
SK-MEL-5 melanoma
  TGI: > 67.6 µM
UO-31 renal
  TGI: > 69.6 µM
HT29 colon
  TGI: > 100 µM
SK-OV-3 ovarian
  TGI: > 100 µM
OVCAR-5 ovarian
  TGI: > 100 µM
MDA-N
  TGI: > 100 µM
786-0 renal
  TGI: > 84.8 µM
A498 renal
  TGI: > 100 µM
MDA-MB-231 breast
  TGI: > 100 µM
M14 melanoma
  TGI: 24.5 µM
EKVX NSCLC
  TGI: > 100 µM
NCI-H522 lung
  TGI: 72.8 µM
RPMI-8226 leukemia
  TGI: > 100 µM
OVCAR-8 ovarian
  TGI: > 100 µM
NCI-H226 lung
  TGI: > 75.1 µM

## CC(=O)OCC1OC(OCCCCCCO)C(OC(C)=O)C(OC(C)=O)C1OC(C)=O (stereo not given)
HL-60(TB) leukemia
  TGI: > 100 µM
BT-549 breast
  TGI: > 100 µM
RXF 393 renal
  TGI: > 100 µM
HOP-62 NSCLC
  TGI: > 100 µM
TK-10 renal
  TGI: > 100 µM
PC-3 prostate
  TGI: > 100 µM
MOLT-4 leukemia
  TGI: > 100 µM
SF-268 CNS
  TGI: > 100 µM
UACC-62 melanoma
  TGI: > 100 µM
CCRF-CEM leukemia
  TGI: > 100 µM
SN12C renal
  TGI: > 100 µM
HCC-2998 colon
  TGI: > 100 µM
OVCAR-4 ovarian
  TGI: > 100 µM
HCT-116 colon
  TGI: > 100 µM
CAKI-1 renal
  TGI: > 100 µM
K-562 leukemia
  TGI: > 100 µM
MCF7 breast
  TGI: > 100 µM
MDA-MB-435
  TGI: > 100 µM
KM12 colon
  TGI: > 100 µM
SW-620 colon
  TGI: > 100 µM
U251 CNS
  TGI: > 100 µM
SK-MEL-28 melanoma
  TGI: > 100 µM
SF-295 CNS
  TGI: > 100 µM
SK-MEL-2 melanoma
  TGI: > 100 µM
SNB-75 CNS
  TGI: > 100 µM
SNB-19 CNS
  TGI: > 100 µM
NCI/ADR-RES ovarian
  TGI: > 100 µM
SF-539 CNS
  TGI: > 100 µM
SR leukemia
  TGI: > 100 µM
HOP-92 NSCLC
  TGI: > 100 µM
LOX IMVI melanoma
  TGI: > 100 µM
HS 578T breast
  TGI: > 100 µM
NCI-H23 lung
  TGI: > 100 µM
UACC-257 melanoma
  TGI: > 100 µM
IGROV1 ovarian
  TGI: > 100 µM
NCI-H460 lung
  TGI: > 100 µM
A549 NSCLC
  TGI: > 100 µM
ACHN renal
  TGI: > 100 µM
HCT-15 colon
  TGI: > 100 µM
UO-31 renal
  TGI: > 100 µM
HT29 colon
  TGI: > 100 µM
OVCAR-3 ovarian
  TGI: > 100 µM
SK-OV-3 ovarian
  TGI: > 100 µM
OVCAR-5 ovarian
  TGI: > 100 µM
MDA-N
  TGI: > 100 µM
A498 renal
  TGI: > 100 µM
MDA-MB-231 breast
  TGI: > 100 µM
M14 melanoma
  TGI: > 100 µM
EKVX NSCLC
  TGI: > 100 µM
NCI-H522 lung
  TGI: > 100 µM
RPMI-8226 leukemia
  TGI: > 100 µM
OVCAR-8 ovarian
  TGI: > 100 µM
NCI-H226 lung
  TGI: > 100 µM
